Assay results reported in ChEMBL document CHEMBL3867453, “Total Synthesis of (±)-Isoperbergins and Correction of the Chemical Structure of Perbergin” (2016).
Values after ≈ are worked out from the molar mass of the structure shown.

Tests used:
Assay type in all cases: functional
Rhodococcus fascians = assay: Antibacterial activity against Rhodococcus fascians after 24 hrs by MTT based microdilution assay; conditions: Rhodococcoides fascians
[1] = test system: Mycolicibacterium smegmatis; assay: Antibacterial activity against Mycobacterium smegmatis after 48 hrs by MTT based microdilution assay
Escherichia coli = assay: Antibacterial activity against Escherichia coli after 24 hrs by MTT based microdilution assay
Staphylococcus aureus = assay: Antibacterial activity against Staphylococcus aureus after 24 hrs by MTT based microdilution assay
Pseudomonas aeruginosa = assay: Antibacterial activity against Pseudomonas aeruginosa after 24 hrs by MTT based microdilution assay

With `CN[C@@H]1[C@@H](O[C@H]2O[C@H](CO)[C@@H](N)[C@H](O)[C@H]2O)O[C@H]2C[C@@H](N)[C@@H](O[C@H]3[C@H](O)[C@@H](O)[C@H](N)C[C@@H]3N)O[C@@H]2[C@@H]1O` the MIC (Rhodococcus fascians) was 50 µg/mL (≈ 92.7 µM), the MIC [1] was 2.5 µg/mL (≈ 4.63 µM) and the MIC (Escherichia coli) was > 50 µg/mL. It also gave an MIC (Staphylococcus aureus) of 30 µg/mL (≈ 55.6 µM) and an MIC (Pseudomonas aeruginosa) of 50 µg/mL (≈ 92.7 µM).
For `COc1ccc(C2COc3c(C/C=C(\C)CCC=C(C)C)c(O)cc(O)c3C2=O)c(O)c1O` (racemic), the MIC (Rhodococcus fascians) was 12.5 µg/mL (≈ 27.5 µM), the MIC [1] was 5 µg/mL (≈ 11 µM) and the MIC (Escherichia coli) was > 50 µg/mL. For the same compound, the MIC (Staphylococcus aureus) was 5 µg/mL (≈ 11 µM) and the MIC (Pseudomonas aeruginosa) was > 50 µg/mL.
With `COc1ccc(C2COc3cc(O)cc(O)c3C2=O)c(O)c1O` (racemic) the MIC (Rhodococcus fascians) was > 50 µg/mL, the MIC [1] was > 50 µg/mL and the MIC (Escherichia coli) was > 50 µg/mL. For the same compound, the MIC (Staphylococcus aureus) was > 50 µg/mL and the MIC (Pseudomonas aeruginosa) was > 50 µg/mL.
For `COc1ccc(C2COc3c(C/C=C(/C)CCC=C(C)C)c(O)cc(O)c3C2=O)c(O)c1O` (racemic), the MIC (Rhodococcus fascians) was 12.5 µg/mL (≈ 27.5 µM), the MIC [1] was 5 µg/mL (≈ 11 µM) and the MIC (Escherichia coli) was > 50 µg/mL. For the same compound, the MIC (Staphylococcus aureus) was 5 µg/mL (≈ 11 µM) and the MIC (Pseudomonas aeruginosa) was > 50 µg/mL.
In the case of `CC1(C)S[C@@H]2[C@H](NC(=O)[C@H](N)c3ccccc3)C(=O)N2[C@H]1C(=O)O` [AMPICILLIN], the MIC (Rhodococcus fascians) is reported as 20 µg/mL (≈ 57.2 µM), the MIC [1] is reported as > 50 µg/mL and the MIC (Escherichia coli) is reported as < 5 µg/mL. The MIC (Staphylococcus aureus) was > 50 µg/mL and the MIC (Pseudomonas aeruginosa) was < 5 µg/mL.
